Data set [1] concerns the target T1, hERG potassium channels (Homo sapiens, UniProt Q12809).
T1 construct: expressed in transfected cells; host or cells: HEK-293 (membranes)
In words: hERG binding assay ([35S]MK-499 displacement). The conditions noted are these: [35S]MK-499, HEK-293 hERG membranes. The source says:
All four compounds were also counter-screened for human ether-a-go-go-related gene (hERG) activity against the radio-ligand MK-0499. Blockade of hERG K^+ channels is widely regarded as the predominant cause of drug-induced QT prolongation. (Aronov, A J Med Chem. 2006 Nov. 16; 49(23):6917-21).
MK-499, a potent hERG blocker, was used in a ligand binding assay to evaluate the binding of test compounds to hERG potassium channels as previously described (Wang, J et al. Am J Physiol Heart Circ Physiol, 2003, 284: H256-H267).^2 Test compounds were incubated with 0.05 nM of radiolabeled MK-499 ([35S]MK-499; specific Activity=1,279,010 μCi/μmol) in an assay buffer solution (70 mM NaCl, 60 mM KCl, 10 mM HEPES/NaOH (pH 7.4), 2 mM MgCl2, 1 mM CaCl2) also containing membranes isolated from HEK-293 cells stably expressing hERG channels in 96 well polypropylene deep-well assay plates at room temperature (25° C.) for >90 min. Assay plates were rinsed three time with buffer (130 mM NaCl, 10 mM HEPES/NaOH (pH 7.4), 2 mM MgCl2, 1 mM CaCl2) and the solution transferred to a Packard FilterMate Universal Harvester apparatus and filtered using PerkinElmer UniFilter-96 GF/C 96-well white microplates pre-soaked with 0.3% BSA (10 mL/L of 30% BSA). Plates were dried overnight at 37° C., or for 2 hrs at 56° C. The bottom of the plates were sealed and 0.025 mL of Microscint 0 was added to each well. The plates were top sealed and counted for 2 min/well in a Packard TopCount Scintillation counter. Test compounds were evaluated in a five point titration format using half-log steps from 0.3 μM to 30 μM. […] Less than 5% of the added radioactivity was retained on the filters. Assays were performed in triplicate.

Data set [2] addresses T2, human Nav1.2 (Homo sapiens, UniProt Q99250).
T2 construct: host or cells: HEK
In words: hNav1.2 functional block, whole-cell patch clamp. In kind it is cell-based. Here is the method:
Of the 20 analogs tested, six had [^3H]-BTX displacement characteristics much greater then that of phenyloin (Table 7), see Schemes 5, 6, 7 and 8 for the chemical synthesis and structure of the tested compounds. Compound 26, having the greatest [^3H]-BTX displacement at 86% ([…]), was further tested for VGSC functional blocking ability in HEK cells stably expressing Nav1.2 (Table 8).
In addition the functional blocking ability of 9 was tested after site two affinities was confirmed. The potential reason for this increased blocking ability stems from the dansyl addition in a hydrophobically receptive region of the binding site in the VGSC (Anderson, J. D., et al. Mol. Cancer. Ther. 2003, 2, 1149-1154; Lenkowski, P et al. Neuropharmacology, 2007, 52, 1044-1054). This enhanced potency could be due to the dansyl substituent interacting with L1465 and 11469, located in S6 of domain III in the binding site, which are believed to be the source of hydrophobic receptivity 17. The ability to inhibit VGSC currents is an important property and represents functional blocking. The ability of CDPNS to inhibit sodium channel currents was assessed at 10 and 100 μM against human Nav1.2 by patch clamp assay (FIG. 10).
Human embryonic kidney cells (HEK) cells stably expressing human Nav1.2 were a kind gift from Dr. H. A. Hartmann (University of Baltimore, Md., USA) and were grown in DMEM/F12 media (Invitrogen, Corp, CA, USA) supplemented with 10% fetal bovine serum, penicillin (100 U/ml), streptomycin (100 μg/ml) and G418 (500 μg/ml; Sigma, Mo., USA). Cells were grown in a humidified atmosphere of 5% CO2 and 95% air at 37° C.
Sodium currents were recorded using the whole-cell configuration of the patch clamp recording technique with an Axopatch 200 amplifier (Axon Instruments, Foster City, Calif.). All voltage protocols were applied using pCLAMP 9 software (Axon, USA) and a Digidata 1322A (Axon, USA). Currents were amplified and low pass filtered (2 kHz) and sampled at 33 kHz. Borosilicate glass pipettes were pulled using a Brown-Flaming puller (model P87, Sutter Instruments Co, Novato, Calif.) and heat polished to produce electrode resistances of 0.5-1.5 MΩ when filled with the following electrode solution (in mM); CsCl 130, MgCl2 1, MgATP 5, BAPTA 10, HEPES 5 (pH adjusted to 7.4 with CsOH). Cells were plated on glass coverslips and superfused with solution containing the following composition; (in mM) NaCl 130, KCl 4, CaCl2 1, MgCl2 5, HEPES 5, and glucose 5 (pH adjusted to 7.4 with NaOH).
Compound 26 was prepared as 100 mM stock solutions in dimethyl sulfoxide (DMSO) and diluted to desired concentration in perfusion solution. The maximum DMSO concentration used was 0.1% and had no effect on current amplitude. All experiments were performed at room temperature (20-22° C.). After establishing whole-cell, a minimum series resistance compensation of 75% was applied. Sodium currents were elicited by a depolarizing step from a holding potential of −100 mV to +10 mV for a duration of 25 ms at 15 s intervals. Compound 26 was applied after a 3 min control period and continued until a steady state current amplitude was observed. All data represent percentage mean block±standard error of the mean (S.E.M.).
Background: In patch-clamp work, channel activity is measured electrically.

SMILES strings stand for the structures.

T2 sequence (Q99250 whole entry): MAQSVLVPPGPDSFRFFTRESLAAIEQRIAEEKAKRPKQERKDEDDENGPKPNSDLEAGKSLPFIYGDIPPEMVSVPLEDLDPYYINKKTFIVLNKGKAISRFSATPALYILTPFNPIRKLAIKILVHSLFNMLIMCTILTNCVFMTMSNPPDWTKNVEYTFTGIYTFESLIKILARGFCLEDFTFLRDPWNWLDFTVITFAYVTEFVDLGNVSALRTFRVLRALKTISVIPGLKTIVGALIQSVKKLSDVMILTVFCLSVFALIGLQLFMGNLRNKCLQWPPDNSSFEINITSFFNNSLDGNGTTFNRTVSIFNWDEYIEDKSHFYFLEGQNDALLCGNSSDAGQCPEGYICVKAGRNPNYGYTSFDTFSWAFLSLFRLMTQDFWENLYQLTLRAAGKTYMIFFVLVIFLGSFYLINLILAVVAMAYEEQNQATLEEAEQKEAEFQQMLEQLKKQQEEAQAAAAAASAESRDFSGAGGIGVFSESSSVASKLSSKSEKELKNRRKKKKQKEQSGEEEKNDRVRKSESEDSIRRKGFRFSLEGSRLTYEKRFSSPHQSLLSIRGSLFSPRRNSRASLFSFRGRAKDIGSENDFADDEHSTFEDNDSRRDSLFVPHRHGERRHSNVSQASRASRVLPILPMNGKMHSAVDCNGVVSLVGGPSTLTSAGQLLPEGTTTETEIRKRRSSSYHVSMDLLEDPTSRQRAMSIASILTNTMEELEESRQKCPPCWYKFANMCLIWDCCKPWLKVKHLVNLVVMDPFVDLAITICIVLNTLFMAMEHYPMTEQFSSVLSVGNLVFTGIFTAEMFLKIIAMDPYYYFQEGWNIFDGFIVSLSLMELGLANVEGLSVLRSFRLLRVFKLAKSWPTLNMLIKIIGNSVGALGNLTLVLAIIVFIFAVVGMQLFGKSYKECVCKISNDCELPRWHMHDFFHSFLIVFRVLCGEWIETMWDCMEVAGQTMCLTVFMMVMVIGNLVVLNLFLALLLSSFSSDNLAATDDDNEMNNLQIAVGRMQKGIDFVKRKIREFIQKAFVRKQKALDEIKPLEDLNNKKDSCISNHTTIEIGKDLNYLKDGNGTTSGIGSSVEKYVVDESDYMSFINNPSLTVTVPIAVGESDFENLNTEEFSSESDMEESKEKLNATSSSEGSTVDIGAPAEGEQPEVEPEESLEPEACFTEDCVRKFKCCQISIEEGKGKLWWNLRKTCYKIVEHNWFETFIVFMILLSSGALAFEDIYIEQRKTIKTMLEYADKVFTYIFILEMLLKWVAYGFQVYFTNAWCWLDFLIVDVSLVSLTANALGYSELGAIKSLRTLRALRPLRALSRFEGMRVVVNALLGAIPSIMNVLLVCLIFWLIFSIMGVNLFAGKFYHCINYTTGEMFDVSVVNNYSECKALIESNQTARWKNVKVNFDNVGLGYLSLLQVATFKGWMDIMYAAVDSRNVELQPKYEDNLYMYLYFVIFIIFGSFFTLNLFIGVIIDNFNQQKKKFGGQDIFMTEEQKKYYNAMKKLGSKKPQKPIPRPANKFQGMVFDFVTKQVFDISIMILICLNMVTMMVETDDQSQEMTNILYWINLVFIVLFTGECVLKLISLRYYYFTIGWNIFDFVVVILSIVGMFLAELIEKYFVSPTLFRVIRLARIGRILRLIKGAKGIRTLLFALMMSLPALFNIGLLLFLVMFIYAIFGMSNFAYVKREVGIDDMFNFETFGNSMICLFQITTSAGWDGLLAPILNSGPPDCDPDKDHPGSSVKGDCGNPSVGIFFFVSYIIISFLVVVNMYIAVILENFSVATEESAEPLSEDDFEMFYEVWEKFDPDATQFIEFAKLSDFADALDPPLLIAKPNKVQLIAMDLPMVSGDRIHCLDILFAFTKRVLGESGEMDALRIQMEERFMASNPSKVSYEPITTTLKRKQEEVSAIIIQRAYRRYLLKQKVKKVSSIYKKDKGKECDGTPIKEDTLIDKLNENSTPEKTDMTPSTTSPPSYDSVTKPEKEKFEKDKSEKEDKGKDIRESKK
T1 sequence (Q12809 whole entry): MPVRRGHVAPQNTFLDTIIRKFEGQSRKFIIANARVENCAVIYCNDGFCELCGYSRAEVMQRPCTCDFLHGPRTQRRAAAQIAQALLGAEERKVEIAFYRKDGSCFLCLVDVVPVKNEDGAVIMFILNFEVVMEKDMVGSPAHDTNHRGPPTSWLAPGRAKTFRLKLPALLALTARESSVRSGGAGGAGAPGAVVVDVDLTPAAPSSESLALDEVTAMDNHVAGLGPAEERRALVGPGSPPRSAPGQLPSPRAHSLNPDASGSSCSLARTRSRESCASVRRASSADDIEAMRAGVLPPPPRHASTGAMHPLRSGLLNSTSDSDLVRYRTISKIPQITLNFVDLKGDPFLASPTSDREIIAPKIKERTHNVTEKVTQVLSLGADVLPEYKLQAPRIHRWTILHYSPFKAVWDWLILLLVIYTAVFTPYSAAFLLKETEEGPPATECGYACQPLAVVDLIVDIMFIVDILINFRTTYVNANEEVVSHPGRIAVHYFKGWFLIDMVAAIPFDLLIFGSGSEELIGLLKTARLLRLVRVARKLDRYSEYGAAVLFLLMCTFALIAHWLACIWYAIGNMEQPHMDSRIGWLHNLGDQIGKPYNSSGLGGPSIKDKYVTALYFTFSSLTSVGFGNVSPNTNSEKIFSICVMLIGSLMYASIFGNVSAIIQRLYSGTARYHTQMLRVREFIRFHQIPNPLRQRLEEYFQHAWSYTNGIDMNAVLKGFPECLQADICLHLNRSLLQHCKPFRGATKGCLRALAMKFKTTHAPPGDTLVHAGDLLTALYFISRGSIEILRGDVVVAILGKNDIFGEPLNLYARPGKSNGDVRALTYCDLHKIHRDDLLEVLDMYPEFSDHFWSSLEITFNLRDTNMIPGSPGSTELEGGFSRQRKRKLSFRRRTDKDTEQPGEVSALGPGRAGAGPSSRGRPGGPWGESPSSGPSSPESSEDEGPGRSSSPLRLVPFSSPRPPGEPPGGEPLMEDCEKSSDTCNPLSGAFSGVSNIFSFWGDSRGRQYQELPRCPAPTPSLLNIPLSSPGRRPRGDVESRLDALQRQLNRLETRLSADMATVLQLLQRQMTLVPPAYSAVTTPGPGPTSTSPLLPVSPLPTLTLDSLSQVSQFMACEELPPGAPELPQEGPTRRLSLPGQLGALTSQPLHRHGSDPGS

Regarding `O=C1NC(=O)C(c2ccccc2)(c2ccccc2)N1` [DPH, Diphenylhydantoin, reference compound], the “% inhibition for hERG assay, 0.3 μM” value in data set [1] (0.3 μM) came to 9%. For the same compound, the “% inhibition for hERG assay, 1 μM” value in data set [1] (1 μM) is recorded as 20%. For the same compound, the “% inhibition for hERG assay, 3 μM” value in data set [1] (3 μM) turned out to be 28%. For the same compound, the “% inhibition for hERG assay, 10 μM” value in data set [1] (10 μM) stood at 17%. For the same compound, the “% inhibition for hERG assay, 30 μM” value in data set [1] (30 μM) is 40%. The “% hNaV 1.2 Functional Block (10 μM)” value in data set [2] (Table 8) and in data set [2] (Table 9) was 10.9 ± 4.2% throughout. Also, the “% Nav 1.2 Functional Block (10 μm)” value in data set [2] (10 μm, Table 13) is listed as 10.9 ± 4.2%.

The values are drawn from patent publication US8816095B2, “Na channels, disease, and related assays and compositions” (Georgetown University, priority 2008, dated 2014).
